Laboratory results as given in ChEMBL document CHEMBL3132769, “Fragment growing to retain or alter the selectivity of anchored kinase hinge-binding fragments” (Medchemcomm, 2014).

Legend:
[1] = tested on: Tyrosine-protein kinase ABL1 (Homo sapiens), P00519 [H396P]; assay: Inhibition of human truncated ABL H396P mutant expressed in baculovirus assessed as substrate phosphorylation using fluorescence-labelled peptides as substrate at 95 uM after 90 mins by microfluidic peptide phosphorylation assay
[2] = biological target: Mitogen-activated protein kinase 3 (Homo sapiens) (UniProt P27361); assay: Inhibition of human full length ERK1 expressed in Escherichia coli cell assessed as substrate phosphorylation using fluorescence-labelled peptides as substrate at 0.06 uM after 90 mins by microfluidic peptide phosphorylation assay
Mitogen-activated protein kinase 3 (Homo sapiens), sequence (P27361 whole entry): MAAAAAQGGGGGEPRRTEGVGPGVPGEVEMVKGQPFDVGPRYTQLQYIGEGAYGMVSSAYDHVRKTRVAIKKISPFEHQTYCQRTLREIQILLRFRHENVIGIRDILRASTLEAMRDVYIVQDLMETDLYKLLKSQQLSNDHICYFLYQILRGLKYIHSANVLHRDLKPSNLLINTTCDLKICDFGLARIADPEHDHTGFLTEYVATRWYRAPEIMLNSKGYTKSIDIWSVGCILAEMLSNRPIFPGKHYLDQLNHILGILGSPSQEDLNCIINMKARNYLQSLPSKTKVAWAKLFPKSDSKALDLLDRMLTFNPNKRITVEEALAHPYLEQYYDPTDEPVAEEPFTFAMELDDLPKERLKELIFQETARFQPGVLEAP

[3] = biological target: Protein kinase C alpha type (Homo sapiens) (UniProt P17252); conditions: 0.1 uM
Description: Inhibition of human truncated PKC alpha expressed in baculovirus assessed as substrate phosphorylation using fluorescence-labelled peptides as substrate at 0.1 uM after 90 mins by microfluidic peptide phosphorylation assay

[4] = biological target: Insulin-like growth factor 1 receptor (Homo sapiens) (UniProt P08069); assay: Inhibition of human IGF1R catalytic domain expressed in baculovirus assessed as substrate phosphorylation using fluorescence-labelled peptides as substrate at 0.1 uM after 90 mins by microfluidic peptide phosphorylation assay
[5] = biological target: RAF proto-oncogene serine/threonine-protein kinase (Homo sapiens) (UniProt P04049); assay: Inhibition of human truncated c-Raf expressed in baculovirus assessed as substrate phosphorylation using fluorescence-labelled peptides as substrate at 0.1 uM after 90 mins by microfluidic peptide phosphorylation assay
[6] = biological target: Ribosomal protein S6 kinase alpha-2 (Homo sapiens) (UniProt Q15349); assay: Inhibition of human full length RSK3 expressed in baculovirus assessed as substrate phosphorylation using fluorescence-labelled peptides as substrate at 0.1 uM after 90 mins by microfluidic peptide phosphorylation assay
[7] = biological target: Vascular endothelial growth factor receptor 2 (Homo sapiens) (UniProt P35968); assay: Inhibition of human KDR cytoplasmic domain expressed in baculovirus assessed as substrate phosphorylation using fluorescence-labelled peptides as substrate at 0.1 uM after 90 mins by microfluidic peptide phosphorylation assay
Vascular endothelial growth factor receptor 2 (Homo sapiens), sequence (P35968 whole entry, the tested form may be a part): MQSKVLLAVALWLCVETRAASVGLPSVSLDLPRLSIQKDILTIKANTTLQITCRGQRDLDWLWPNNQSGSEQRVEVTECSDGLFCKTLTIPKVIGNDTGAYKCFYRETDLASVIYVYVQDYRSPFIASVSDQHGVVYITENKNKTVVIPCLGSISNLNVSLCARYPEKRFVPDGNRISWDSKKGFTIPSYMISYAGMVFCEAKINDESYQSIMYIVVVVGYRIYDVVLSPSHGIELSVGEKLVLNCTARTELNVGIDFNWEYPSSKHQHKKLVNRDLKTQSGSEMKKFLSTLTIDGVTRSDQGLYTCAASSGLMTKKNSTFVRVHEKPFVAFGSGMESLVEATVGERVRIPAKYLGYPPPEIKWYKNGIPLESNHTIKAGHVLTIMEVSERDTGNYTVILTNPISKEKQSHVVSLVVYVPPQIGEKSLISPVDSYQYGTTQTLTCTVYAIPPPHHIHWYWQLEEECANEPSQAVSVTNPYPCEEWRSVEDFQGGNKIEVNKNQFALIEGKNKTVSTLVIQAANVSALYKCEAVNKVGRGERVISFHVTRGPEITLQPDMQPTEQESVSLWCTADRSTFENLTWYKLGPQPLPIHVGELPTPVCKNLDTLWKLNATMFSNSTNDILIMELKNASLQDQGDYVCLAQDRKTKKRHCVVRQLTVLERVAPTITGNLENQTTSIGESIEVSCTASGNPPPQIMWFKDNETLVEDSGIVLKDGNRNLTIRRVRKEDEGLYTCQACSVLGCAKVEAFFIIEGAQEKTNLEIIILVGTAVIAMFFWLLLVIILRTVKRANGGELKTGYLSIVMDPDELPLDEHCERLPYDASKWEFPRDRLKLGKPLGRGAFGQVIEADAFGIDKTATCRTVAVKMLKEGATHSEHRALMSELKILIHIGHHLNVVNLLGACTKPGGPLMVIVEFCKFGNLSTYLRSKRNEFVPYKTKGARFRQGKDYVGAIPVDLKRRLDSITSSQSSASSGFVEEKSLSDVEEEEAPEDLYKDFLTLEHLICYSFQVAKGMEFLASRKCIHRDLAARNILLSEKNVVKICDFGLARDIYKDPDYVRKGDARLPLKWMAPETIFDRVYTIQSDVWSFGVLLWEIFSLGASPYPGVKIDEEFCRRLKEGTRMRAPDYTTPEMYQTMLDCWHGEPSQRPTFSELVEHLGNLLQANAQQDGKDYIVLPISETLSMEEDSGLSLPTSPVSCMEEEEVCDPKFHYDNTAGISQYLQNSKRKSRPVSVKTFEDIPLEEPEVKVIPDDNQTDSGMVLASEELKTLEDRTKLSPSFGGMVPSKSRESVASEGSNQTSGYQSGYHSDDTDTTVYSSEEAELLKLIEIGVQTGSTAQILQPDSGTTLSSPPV

[8] = biological target: T1, Serine/threonine-protein kinase Sgk3 (Homo sapiens) (UniProt Q96BR1); conditions: 0.1 uM
T1 sequence (whole entry): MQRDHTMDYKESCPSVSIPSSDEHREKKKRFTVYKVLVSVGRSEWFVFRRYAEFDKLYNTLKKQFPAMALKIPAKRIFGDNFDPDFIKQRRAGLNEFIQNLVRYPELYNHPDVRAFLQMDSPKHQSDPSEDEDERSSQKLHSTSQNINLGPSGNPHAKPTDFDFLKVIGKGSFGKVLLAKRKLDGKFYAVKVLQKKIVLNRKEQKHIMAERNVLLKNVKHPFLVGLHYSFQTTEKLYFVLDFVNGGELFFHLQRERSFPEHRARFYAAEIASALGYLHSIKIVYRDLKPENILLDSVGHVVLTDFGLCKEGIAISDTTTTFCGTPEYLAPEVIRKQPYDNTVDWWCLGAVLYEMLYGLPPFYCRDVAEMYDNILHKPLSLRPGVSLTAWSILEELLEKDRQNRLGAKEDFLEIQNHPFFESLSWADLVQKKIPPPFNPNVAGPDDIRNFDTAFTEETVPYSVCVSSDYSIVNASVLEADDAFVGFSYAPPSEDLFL
Description: Inhibition of human full length SGK3 expressed in baculovirus assessed as substrate phosphorylation using fluorescence-labelled peptides as substrate at 0.1 uM after 90 mins by microfluidic peptide phosphorylation assay

[9] = biological target: Rho-associated protein kinase 2 (Homo sapiens) (UniProt O75116); assay: Inhibition of human ROCK2 catalytic domain expressed in baculovirus assessed as substrate phosphorylation using fluorescence-labelled peptides as substrate at 420 uM after 90 mins by microfluidic peptide phosphorylation assay
Rho-associated protein kinase 2 (Homo sapiens), sequence (O75116 whole entry, looked up, the tested form may be a part): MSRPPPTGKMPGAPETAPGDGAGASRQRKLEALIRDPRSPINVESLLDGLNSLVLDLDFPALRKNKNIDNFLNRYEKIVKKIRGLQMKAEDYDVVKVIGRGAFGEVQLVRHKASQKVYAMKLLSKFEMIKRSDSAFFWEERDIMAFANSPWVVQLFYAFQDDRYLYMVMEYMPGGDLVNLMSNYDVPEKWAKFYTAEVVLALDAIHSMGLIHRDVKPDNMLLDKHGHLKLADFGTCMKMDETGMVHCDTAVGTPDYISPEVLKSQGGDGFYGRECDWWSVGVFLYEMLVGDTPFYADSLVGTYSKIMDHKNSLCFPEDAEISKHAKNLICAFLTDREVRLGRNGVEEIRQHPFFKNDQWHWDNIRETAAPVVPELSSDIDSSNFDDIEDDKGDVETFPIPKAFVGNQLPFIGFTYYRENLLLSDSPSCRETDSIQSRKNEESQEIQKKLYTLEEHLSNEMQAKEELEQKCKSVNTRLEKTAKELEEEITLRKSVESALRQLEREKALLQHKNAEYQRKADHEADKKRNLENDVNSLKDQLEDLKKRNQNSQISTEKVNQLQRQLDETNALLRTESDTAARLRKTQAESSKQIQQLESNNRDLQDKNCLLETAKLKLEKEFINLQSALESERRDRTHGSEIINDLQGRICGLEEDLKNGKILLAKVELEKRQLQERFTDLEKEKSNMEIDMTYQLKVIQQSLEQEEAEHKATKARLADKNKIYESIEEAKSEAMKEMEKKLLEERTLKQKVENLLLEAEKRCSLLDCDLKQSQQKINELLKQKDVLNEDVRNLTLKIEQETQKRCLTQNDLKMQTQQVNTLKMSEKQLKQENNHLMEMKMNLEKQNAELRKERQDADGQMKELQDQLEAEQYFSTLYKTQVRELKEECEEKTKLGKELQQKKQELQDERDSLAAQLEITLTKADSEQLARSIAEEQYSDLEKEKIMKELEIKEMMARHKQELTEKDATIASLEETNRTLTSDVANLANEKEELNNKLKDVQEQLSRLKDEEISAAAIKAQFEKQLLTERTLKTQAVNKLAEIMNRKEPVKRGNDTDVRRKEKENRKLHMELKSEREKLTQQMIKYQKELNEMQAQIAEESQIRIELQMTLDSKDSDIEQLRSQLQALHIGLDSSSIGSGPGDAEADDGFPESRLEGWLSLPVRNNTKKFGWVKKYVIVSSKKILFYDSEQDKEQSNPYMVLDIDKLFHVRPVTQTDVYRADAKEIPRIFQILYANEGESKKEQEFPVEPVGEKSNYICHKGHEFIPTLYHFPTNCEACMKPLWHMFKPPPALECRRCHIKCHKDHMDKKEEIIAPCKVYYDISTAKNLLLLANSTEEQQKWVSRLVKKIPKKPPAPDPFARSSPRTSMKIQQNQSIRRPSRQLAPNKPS

[10] = biological target: T2, Testis-specific serine/threonine-protein kinase 2 (Homo sapiens) (UniProt Q96PF2); assay: Inhibition of human full length TSSK2 expressed in baculovirus assessed as substrate phosphorylation using fluorescence-labelled peptides as substrate at 70 uM after 90 mins by microfluidic peptide phosphorylation assay
T2 sequence (whole entry): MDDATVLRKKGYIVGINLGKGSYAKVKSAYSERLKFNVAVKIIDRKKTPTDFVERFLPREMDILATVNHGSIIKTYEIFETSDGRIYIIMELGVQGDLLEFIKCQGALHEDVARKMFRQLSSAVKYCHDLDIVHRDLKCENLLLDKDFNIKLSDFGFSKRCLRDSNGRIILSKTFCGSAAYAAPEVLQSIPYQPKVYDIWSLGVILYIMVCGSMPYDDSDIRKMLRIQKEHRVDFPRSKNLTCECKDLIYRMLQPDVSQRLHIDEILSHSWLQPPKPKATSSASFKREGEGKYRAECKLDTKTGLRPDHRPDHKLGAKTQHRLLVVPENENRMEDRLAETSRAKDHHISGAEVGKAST

[11] = biological target: Fibroblast growth factor receptor 4 (Homo sapiens) (UniProt P22455); assay: Inhibition of human FGFR4 catalytic domain expressed in baculovirus assessed as substrate phosphorylation using fluorescence-labelled peptides as substrate at 0.2 uM after 90 mins by microfluidic peptide phosphorylation assay
[12] = biological target: MAP kinase p38 (Homo sapiens) (UniProt O15264+Q15759+Q16539+P53778); assay: Inhibition of human full length p38 beta2 expressed in Escherichia coli cell assessed as substrate phosphorylation using fluorescence-labelled peptides as substrate at 0.2 uM after 90 mins by microfluidic peptide phosphorylation assay
[13] = biological target: Protein kinase C delta type (Homo sapiens) (UniProt Q05655); assay: Inhibition of human truncated PKC delta expressed in baculovirus assessed as substrate phosphorylation using fluorescence-labelled peptides as substrate at 2 uM after 90 mins by microfluidic peptide phosphorylation assay
Protein kinase C delta type (Homo sapiens), sequence (Q05655 whole entry, looked up, the tested form may be a part): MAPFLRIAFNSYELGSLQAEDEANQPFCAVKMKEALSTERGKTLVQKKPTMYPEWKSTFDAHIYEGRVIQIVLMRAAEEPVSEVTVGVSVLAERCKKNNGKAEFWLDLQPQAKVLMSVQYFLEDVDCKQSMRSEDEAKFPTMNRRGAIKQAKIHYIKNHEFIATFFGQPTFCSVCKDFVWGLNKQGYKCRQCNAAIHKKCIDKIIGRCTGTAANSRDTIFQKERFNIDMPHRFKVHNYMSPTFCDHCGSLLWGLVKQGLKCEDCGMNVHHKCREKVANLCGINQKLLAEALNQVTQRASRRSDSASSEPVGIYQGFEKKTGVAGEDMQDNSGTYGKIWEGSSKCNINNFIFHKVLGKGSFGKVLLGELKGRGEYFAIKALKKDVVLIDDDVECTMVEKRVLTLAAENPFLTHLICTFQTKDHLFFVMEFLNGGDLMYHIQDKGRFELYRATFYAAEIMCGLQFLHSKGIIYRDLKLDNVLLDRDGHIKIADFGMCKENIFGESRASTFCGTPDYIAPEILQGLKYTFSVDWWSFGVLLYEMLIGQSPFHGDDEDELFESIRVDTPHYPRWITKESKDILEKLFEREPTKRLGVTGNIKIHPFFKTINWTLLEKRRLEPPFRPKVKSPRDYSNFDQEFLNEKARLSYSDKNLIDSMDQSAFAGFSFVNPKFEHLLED

[14] = biological target: Vascular endothelial growth factor receptor 2 (Homo sapiens) (UniProt P35968); assay: Inhibition of human KDR cytoplasmic domain expressed in baculovirus assessed as substrate phosphorylation using fluorescence-labelled peptides as substrate at 2 uM after 90 mins by microfluidic peptide phosphorylation assay
[15] = species: Homo sapiens; assay: Inhibition of human P70S6K catalytic domain expressed in baculovirus assessed as substrate phosphorylation using fluorescence-labelled peptides as substrate at 8 uM after 90 mins by microfluidic peptide phosphorylation assay
[16] = biological target: T3, Calcium/calmodulin-dependent protein kinase type IV (Homo sapiens) (UniProt Q16566); assay: Inhibition of human full length CAMK4 expressed in baculovirus assessed as substrate phosphorylation using fluorescence-labelled peptides as substrate at 1000 uM after 90 mins by microfluidic peptide phosphorylation assay
T3 sequence (whole entry): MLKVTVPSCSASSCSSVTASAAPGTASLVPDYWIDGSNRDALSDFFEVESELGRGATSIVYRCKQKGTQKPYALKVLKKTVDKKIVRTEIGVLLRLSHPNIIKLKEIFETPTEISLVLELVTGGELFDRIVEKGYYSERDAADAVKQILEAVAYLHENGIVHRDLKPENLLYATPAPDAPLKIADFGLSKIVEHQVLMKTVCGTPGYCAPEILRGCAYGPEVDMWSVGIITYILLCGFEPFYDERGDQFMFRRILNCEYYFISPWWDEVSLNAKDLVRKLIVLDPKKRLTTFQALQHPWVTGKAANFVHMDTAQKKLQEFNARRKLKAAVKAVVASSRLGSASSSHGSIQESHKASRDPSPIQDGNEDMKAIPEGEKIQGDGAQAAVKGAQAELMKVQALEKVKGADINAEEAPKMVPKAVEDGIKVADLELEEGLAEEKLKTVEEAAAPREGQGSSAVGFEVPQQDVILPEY

Compound NCCc1ccc(-c2ncnc3[nH]cnc23)cc1 has an inhibition [1] of 69.5%.
NC1(Cc2ccc(Cl)cc2)CCN(c2ncnc3[nH]ccc23)CC1 was tested, and the inhibition [2] was 0%.
C[C@H](CN(C)C)Oc1nc(Nc2cc3cccc(Cl)c3cn2)cnc1C#N gave an inhibition [3] of 0%, an inhibition [4] of 9.5% and an inhibition [5] of 4%. The inhibition [6] was 60.5%, the inhibition [7] was 14% and the inhibition [8] was 0%.
Compound c1nc(N2CCOCC2)c2nc[nH]c2n1 has an inhibition [9] of 101%.
CNCc1ccc(-c2ncnc3[nH]cnc23)cc1 gave an inhibition [10] of 10%.
Clc1ccc(C2(c3ccc(-c4ncnc5[nH]cnc45)cc3)CCNCC2)cc1 showed an inhibition [11] of 1.5% and an inhibition [12] of 2.5%.
NC1CCN(c2ncnc3[nH]ccc23)CC1 gave an inhibition [13] of 33% and an inhibition [14] of 0%.
In the case of NCC1CCN(c2ncnc3[nH]ccc23)CC1, the inhibition [15] is reported as 68%.
c1cnc2[nH]ccc2c1 showed an inhibition [16] of 52%.
